Laboratory results published in patent EP4813979A1, “COMPOUND FOR EGFR PROTEIN DEGRADATION AND USE THEREOF” (TYK Medicines, Inc., priority 2023, dated 2025).
Read-outs that look alike come from different tables or passages of the source.

Tests used:
[1] = Pharmacokinetic tests in male SD rats; assay type: in vivo; conditions: oral gavage (po), 10 mg/kg, plasma; for AUC(0-inf) / AUC(0-t) / Cmax / MRT last / Tmax: rat
How it was run: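 Fasted male SD rats (n=3) dosed 10 mg/kg by oral gavage as 1 mg/mL solution in 10% DMSO/90% 0.5% MC. Tail-vein EDTA plasma sampled 0.5–24 h, parent drug quantified by LC-MS/MS; AUC, T1/2, Cmax, Tmax by non-compartmental analysis.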

[2] = biological target: EGFR in Baf3-19del-T790M-C797S (Homo sapiens, UniProt P00533, C797S/DEL746-750/T790M); assay: EGFR PROTAC HTRF experiment (total EGFR degradation); assay type: cell-based
Sequence of EGFR in Baf3-19del-T790M-C797S (P00533 with tags, fused parts or gaps DEL746-750/T790M/C797S): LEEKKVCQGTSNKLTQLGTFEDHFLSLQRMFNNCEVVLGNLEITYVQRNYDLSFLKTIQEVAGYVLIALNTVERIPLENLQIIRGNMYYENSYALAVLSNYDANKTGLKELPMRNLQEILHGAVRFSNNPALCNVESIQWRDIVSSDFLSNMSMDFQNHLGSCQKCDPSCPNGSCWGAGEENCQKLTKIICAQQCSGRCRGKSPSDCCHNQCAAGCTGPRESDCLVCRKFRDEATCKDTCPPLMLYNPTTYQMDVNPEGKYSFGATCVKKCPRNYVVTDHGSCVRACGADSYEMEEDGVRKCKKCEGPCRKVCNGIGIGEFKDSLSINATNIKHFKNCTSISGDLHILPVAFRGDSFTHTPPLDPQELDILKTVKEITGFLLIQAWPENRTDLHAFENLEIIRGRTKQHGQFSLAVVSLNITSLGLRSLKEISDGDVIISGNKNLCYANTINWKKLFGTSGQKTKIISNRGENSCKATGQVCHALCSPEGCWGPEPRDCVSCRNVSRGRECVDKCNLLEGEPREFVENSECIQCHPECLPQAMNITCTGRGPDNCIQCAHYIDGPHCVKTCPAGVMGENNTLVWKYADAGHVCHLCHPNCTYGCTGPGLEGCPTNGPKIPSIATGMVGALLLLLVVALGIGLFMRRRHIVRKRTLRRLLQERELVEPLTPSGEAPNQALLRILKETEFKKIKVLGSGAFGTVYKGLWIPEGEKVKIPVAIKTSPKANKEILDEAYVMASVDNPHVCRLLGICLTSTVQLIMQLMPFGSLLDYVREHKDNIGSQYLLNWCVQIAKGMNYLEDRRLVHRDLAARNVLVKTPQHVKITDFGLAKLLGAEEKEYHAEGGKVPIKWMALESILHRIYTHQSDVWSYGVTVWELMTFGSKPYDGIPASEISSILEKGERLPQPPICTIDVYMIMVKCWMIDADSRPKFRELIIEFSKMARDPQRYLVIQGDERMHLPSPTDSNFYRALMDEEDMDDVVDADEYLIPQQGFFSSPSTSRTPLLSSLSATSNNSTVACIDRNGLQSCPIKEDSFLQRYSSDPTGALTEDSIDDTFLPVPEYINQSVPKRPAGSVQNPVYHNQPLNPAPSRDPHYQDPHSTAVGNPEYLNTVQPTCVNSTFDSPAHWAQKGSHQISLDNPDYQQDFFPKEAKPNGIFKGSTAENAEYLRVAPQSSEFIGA
Procedure: (§1) [table] Among them, B[…] -C797S (abbreviated as Baf3-DTC) is a stable Ba/F3 clone expressing exogenous EGFR gene bearing T790M, C797S and […] triple amino acid mutations, purchased from KYinno; Baf3-L858R-T790M - C797S (abbreviated as Baf3-LTC) is a stable Ba/F3 clone expressing exogenous EGFR gene bearing […], T790M, C797S triple mutations, purchased from KYinno. [table] [table] Dilutded Eu and d2 antibodies 2μl per well with detection buffer 20-fold. Then mixed the two antibody vials thoroughly. [table] Opened EnVision , locate the HTRF program, configured the board, and then read […]. The fitted curve, DC50 and Dmax of this compound could be generated using GraphPad Prism .

[3] = biological target: EGFR in Baf3-L858R-T790M-C797S (Homo sapiens, UniProt P00533, C797S/L858R/T790M); assay: as above; assay type: cell-based
Sequence of EGFR in Baf3-L858R-T790M-C797S (P00533 25-1210 T790M/C797S/L858R): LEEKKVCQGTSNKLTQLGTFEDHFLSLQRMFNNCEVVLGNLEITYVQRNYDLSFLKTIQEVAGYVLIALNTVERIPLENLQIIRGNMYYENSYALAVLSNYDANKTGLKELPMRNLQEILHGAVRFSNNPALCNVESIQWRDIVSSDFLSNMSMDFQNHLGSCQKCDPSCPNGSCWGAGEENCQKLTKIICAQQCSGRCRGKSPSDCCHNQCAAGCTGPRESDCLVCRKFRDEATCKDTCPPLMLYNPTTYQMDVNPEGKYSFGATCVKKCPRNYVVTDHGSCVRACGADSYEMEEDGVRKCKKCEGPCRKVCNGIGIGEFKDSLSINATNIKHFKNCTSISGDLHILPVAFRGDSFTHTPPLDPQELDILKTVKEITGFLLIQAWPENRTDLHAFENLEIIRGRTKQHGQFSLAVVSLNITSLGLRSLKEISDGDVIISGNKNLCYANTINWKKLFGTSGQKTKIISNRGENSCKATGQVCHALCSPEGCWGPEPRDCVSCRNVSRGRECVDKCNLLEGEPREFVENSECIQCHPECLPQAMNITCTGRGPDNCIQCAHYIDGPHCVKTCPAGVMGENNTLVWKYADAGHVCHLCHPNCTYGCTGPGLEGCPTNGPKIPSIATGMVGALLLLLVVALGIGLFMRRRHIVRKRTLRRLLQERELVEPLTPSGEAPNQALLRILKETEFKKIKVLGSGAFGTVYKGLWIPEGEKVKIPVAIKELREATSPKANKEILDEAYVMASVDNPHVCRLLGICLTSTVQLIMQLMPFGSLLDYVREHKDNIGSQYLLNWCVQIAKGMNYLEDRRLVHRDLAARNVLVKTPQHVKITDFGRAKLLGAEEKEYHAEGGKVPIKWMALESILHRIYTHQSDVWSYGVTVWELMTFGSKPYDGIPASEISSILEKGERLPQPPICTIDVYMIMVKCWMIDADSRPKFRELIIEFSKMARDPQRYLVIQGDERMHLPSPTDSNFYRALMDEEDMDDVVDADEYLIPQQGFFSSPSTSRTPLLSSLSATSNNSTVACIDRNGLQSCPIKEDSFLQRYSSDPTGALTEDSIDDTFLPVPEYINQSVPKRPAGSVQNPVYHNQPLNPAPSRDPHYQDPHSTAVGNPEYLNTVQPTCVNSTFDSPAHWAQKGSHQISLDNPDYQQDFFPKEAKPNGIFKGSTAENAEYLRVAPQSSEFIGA
Procedure: as §1

A549 = assay: Cell anti-proliferation experiment (CTG); assay type: cell-based; conditions: Homo sapiens, A549 (wild-type EGFR), class symbol
How it was run: (§2)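 Cells were seeded at 1500–2500/well and dosed after ~24 h with compound in a 1:4 dilution series up to 10,000 nM, in triplicate. Viability was read by CTG luminescence after 72 h, normalized to the 0.1% DMSO control and medium blank, and IC50 was obtained by curve fitting.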

PC-9 = assay: Cell anti-proliferation experiment (CTG); assay type: cell-based; conditions: Homo sapiens, PC-9 (EGFR exon 19 deletion), class symbol
How it was run: as §2

A431 = assay: Cell anti-proliferation experiment (CTG); assay type: cell-based; conditions: Homo sapiens, A431 (wild-type EGFR), class symbol
How it was run: as §2

[4] = test system: Baf3-19del- T790M -C797S (Baf3-DTC); assay: Cell anti-proliferation experiment (CTG); assay type: cell-based; conditions: class symbol
How it was run: as §2

H1975 = assay: Cell anti-proliferation experiment (CTG); assay type: cell-based; conditions: Homo sapiens, H1975 (EGFR T790M/L858R), class symbol
How it was run: as §2

HCC827 = assay: Cell anti-proliferation experiment (CTG); assay type: cell-based; conditions: Homo sapiens, HCC827 (exon 19 deletion), class symbol
How it was run: as §2

[5] = test system: Baf3-L858R-T790M - C797S (Baf3-LTC); assay: Cell anti-proliferation experiment (CTG); assay type: cell-based; conditions: class symbol
How it was run: as §2

[6] = Pharmacokinetic test of CD-1 mice; assay type: in vivo; set-up: AUC(0-t) / AUC(0-inf): concentration or dose not given beside the values; conditions: male CD-1 mice, single oral gavage (PO), plasma; for AUC(0-inf) / AUC(0-t) / Cmax / MRT last / Tmax: mouse
Procedure: Plasma was collected from male CD-1 mice after a single gavage administration of the test substance. The plasma was then analyzed to calculate pharmacokinetic parameters.
The solvent is 5% DMSO + 10% Solutol HS-15 + 85% Saline.
Formulation preparation process: Accurately weighed the compound powder, added appropriate volumes of DMSO, Solutol and physiological saline in sequence, and vortexed sonicate at each step to finally form a homogeneous formulation solution.
Experimental animals were housed in the SPF-grade animal facility of Suzhou Xihua New Drug Development Co., Ltd. (License No.: SYXK(Su)2021-0019). Animals were fed normally for at least 3 days after purchase before the experiment, and each mouse was marked with a tail tag. Animals in the oral administration group were fasted overnight the day before administration, and were resumed feeding 4 hours later, with free access to water. Table 4. Sources and Number of Experimental Animals […]
Before administration, checked the state of the administration formulation and ensured its homogeneity by vortexing, stirring or shaking. Calculated the theoretical administration volume for each CD-1 mouse in each group according to the following formula. Theoretical administration volume (mL); = (Dose (mg⋅kg^−1))/(formulation concentration (mg⋅mL^−1)) × animal body weight (kg) [formula]
Table 5 Sample Collection Information
The collected blood was placed in test tubes containing the anticoagulant EDTA-K2 (15 % EDTA-K2 solution), stored on moist ice, and centrifuged within 45 min (1,500 g, 2-8 °C, 10 min). Plasma was then collected. The plasma was stored in pre-chilled centrifuge tubes, flash-frozen on dry ice, and subsequently stored in an ultra-low temperature freezer at -60 °C or lower until shipment.
A quantitative detection method for the analyte was established using Shimadzu liquid chromatography and Triple Quad™ 6500+AB mass spectrometry. The concentration of the parent drug in plasma was analyzed. The analytical results were controlled for variation using quality control samples, with the accuracy of the quality control samples expected to be between 80% and 120%.
The main pharmacokinetic parameters were calculated using a non-compartmental model in Winnonlin Phoenix software. These parameters included the area under the curve (AUC(0-t) and AUC(0-∞)), elimination half-life (T1/2), maximum plasma concentration (Cmax ), and time to reach maximum plasma concentration (Tmax).

[7] = read-out: Baf3-DTC DC50; Baf3-DTC, incubated 16 hours, HTRF total EGFR
[8] = read-out: Baf3-LTC DC50; Baf3-LTC, incubated 16 hours, HTRF total EGFR
[9] = Baf3-DTC, incubated 16 hours, HTRF total EGFR; read-out: Baf3-DTC DC50
[10] = Baf3-DTC, incubated 16 hours, HTRF total EGFR; read-out: Baf3-DTC Dmax
[11] = Baf3-LTC, incubated 16 hours, HTRF total EGFR; read-out: Baf3-LTC DC50
[12] = Baf3-LTC, incubated 16 hours, HTRF total EGFR; read-out: Baf3-LTC Dmax

SMILES | HL [1] | AUC(0-inf) [1] | AUC(0-t) [1] | Cmax [1] | MRT last [1] | DC50 [2, 7] | Dmax ([2]; read-out: Baf3-DTC Dmax) | DC50 [3, 8] | Dmax ([3]; read-out: Baf3-LTC Dmax) | IC50 (A549; 72 hours) | IC50 (PC-9; 72 hours) | IC50 (A431; A-431, 72 hours) | IC50 (H1975; NCI-H1975, 72 hours) | IC50 (HCC827; 72 hours) | HL_ [6] | AUC(0-inf) [6] | AUC(0-t) [6] | Cmax [6] | MRT last [6] | Tmax [6] | also measured
CCc1cc(Nc2ncc(Br)c(Nc3ccccc3P(C)(C)=O)n2)c(OC)cc1N1CCN(C(=O)CN2CCC(c3cc4c(cc3F)c(N3CCC(=O)NC3=O)nn4C)C(F)(F)C2)CC1 (centres unmarked) [TC-158] | 2.81 h | 5610 ng·h/mL | 5590 ng·h/mL | 533 ng/mL | 6.02 h | < 10 nM | 70 to 100% | < 10 nM | 70 to 100% | > 1000 nM | 100 to 1000 nM | > 1000 nM | 10 to 100 nM | 100 to 1000 nM |  |  |  |  |  |  | Tmax [1]: 2.67 h; IC50 ([4]; 72 hours): < 10 nM; IC50 ([5]; 72 hours): < 10 nM
CCc1cc(Nc2ncc(Cl)c(Nc3ccccc3P(C)(C)=O)n2)c(OC)cc1N1CCN(C(=O)CN2CCC(c3cc4c(cc3F)c(N3CCC(=O)NC3=O)nn4C)C(F)(F)C2)CC1 (centres unmarked) [TA-005] |  |  |  |  |  |  |  |  |  |  |  |  |  |  | 2.28 h | 36300 ng·h/mL | 36300 ng·h/mL | 5970 ng/mL | 4.59 h | 1 h | 
CCc1cc(Nc2ncc(Cl)c(Nc3ccccc3C(=O)NC)n2)c(OC)cc1N1CCN(C(=O)CN2CCC(c3ccc4c(N5CCC(=O)NC5=O)nn(C)c4c3)C(F)(F)C2)CC1 (centres unmarked) [Comparative Example 1-1, reference compound] |  |  |  |  |  | 10 to 100 nM | 70 to 100% | 10 to 100 nM | 70 to 100% | 10 to 100 nM | 100 to 1000 nM | 100 to 1000 nM | 10 to 100 nM | 100 to 1000 nM | 2.41 h | 14300 ng·h/mL | 14300 ng·h/mL | 1740 ng/mL | 6.06 h | 2 h | 
CCc1cc(Nc2ncc(Br)c(Nc3ccccc3C(=O)NC)n2)c(OC)cc1N1CCN(C(=O)CN2CCC(c3cc4c(cc3F)c(N3CCC(=O)NC3=O)nn4C)C(F)(F)C2)CC1 (centres unmarked) [TA-004] |  |  |  |  |  |  |  |  |  |  |  |  |  |  | 2.67 h | 28800 ng·h/mL | 28800 ng·h/mL | 3170 ng/mL | 6.01 h | 2 h | DC50 [2, 9]: 100 to 1000 nM; Dmax [2, 10]: 70 to 100%; DC50 [3, 11]: 100 to 1000 nM; Dmax [3, 12]: 70 to 100%; IC50 (A549; A549, 72 h): > 1000 nM; IC50 (PC-9; PC-9, 72 h): > 1000 nM; IC50 (A431; A-431, 72 h): > 1000 nM; IC50 ([4]; 72 h): 10 to 100 nM; IC50 (H1975; NCI-H1975, 72 h): 10 to 100 nM; IC50 (HCC827; HCC827, 72 h): > 1000 nM; IC50 ([5]; 72 h): 10 to 100 nM
CCc1cc(Nc2ncc(Br)c(Nc3ccccc3P(C)(C)=O)n2)c(OC)cc1N1CC2(CCN(C(=O)CN3CCC(c4cc5c(cc4F)c(N4CCC(=O)NC4=O)nn5C)C(F)(F)C3)CC2)C1 (centres unmarked) [TC-164] |  |  |  |  |  | < 10 nM | 70 to 100% | < 10 nM | 70 to 100% | > 1000 nM | 100 to 1000 nM | > 1000 nM | < 10 nM | 10 to 100 nM |  |  |  |  |  |  | IC50 ([4]; 72 hours): < 10 nM; IC50 ([5]; 72 hours): < 10 nM
CCc1cc(Nc2ncc(Br)c(Nc3ccccc3P3(=O)CCCC3)n2)c(OC)cc1N1CC2(CCN(C(=O)CN3CCC(c4cc5c(cc4F)c(N4CCC(=O)NC4=O)nn5C)C(F)(F)C3)CC2(F)F)C1 (centres unmarked) [TB-010] | 3.59 h | 5800 ng·h/mL | 5730 ng·h/mL | 482 ng/mL | 6.6 h |  |  |  |  |  |  |  |  |  |  |  |  |  |  |  | Tmax [1]: 4 h; DC50 [2, 9]: < 10 nM; Dmax [2, 10]: 70 to 100%; DC50 [3, 11]: < 10 nM; Dmax [3, 12]: 70 to 100%; IC50 (A549; A549, 72 h): > 1000 nM; IC50 (PC-9; PC-9, 72 h): 100 to 1000 nM; IC50 (A431; A-431, 72 h): > 1000 nM; IC50 ([4]; 72 h): 10 to 100 nM; IC50 (H1975; NCI-H1975, 72 h): < 10 nM; IC50 (HCC827; HCC827, 72 h): 10 to 100 nM; IC50 ([5]; 72 h): 10 to 100 nM
